Where two headings read alike, the source gives them in different places.
Tests used:
MM1S cells [1] = experiment: Half inhibitory concentration (IC50) on MM1S tumor cell proliferation (CCK-8); assay type: cell-based; conditions: Homo sapiens, MM1.S, MM1S cell proliferation inhibitory activity, 72 hours of treatment, read-out: IC50(nM)/MM1S cell line
Protocol: The multiple myeloma cell line used was: MM1S (myeloma (immunoglobulin A lambda), B lymphoblasts), purchased from American Type Culture Collection (ATCC). The medium is RPMI1640 supplemented with 10% FBS and 1% Penicillin-Streptomycin (penicillin and streptomycin). The cells used were identified as correct cells by STR cells, and were negative for mycoplasma through routine inspections.
(§1) The cells used in this present disclosure were cultured in a 37° C. incubator containing 5% CO2. The complete cell culture medium was RPMI 1640 medium with 10% fetal bovine serum, and the final concentrations of penicillin and streptomycin were 100 U/mL, respectively.
MM1S cells were seeded in 100 μL RPMI1640 complete medium at a density of 15000 cells/well. 100 μL of the inoculated cells were treated with 0.5 μL diluted thio-substituted compound of formula (IV) to be tested of the present disclosure at 10 successively decreasing concentrations (starting at the highest concentration of 10 μM/1 μM; 5-fold serial dilutions). After 72 hours of treatment, the cell viability was determined according to the CCK-8 reagent operating instructions. The negative control was DMSO, and the positive control was a commercial inhibitor. After CCK-8 treatment for 2 h, the value of O.D.450 was measured using a microplate reader.

MDA-MB-231 cells = experiment: Half inhibitory concentration (IC50) on BET-expressing tumor cells, CCK-8, MDA-MB-231; assay type: cell-based; conditions: Homo sapiens, 48/72 h, read-out: IC50 (nM)/MDA-MB-231 cell line
Protocol: (§2) BET-expressing cells MV-4-11 cells (human B granulocytic leukemia cells), MDA-MB-231 cells (human breast cancer cells), MDA-MB-468 cells (human breast cancer cells), MDA-MB-453 Cells (human breast cancer cells), MM1S cells (myeloma (immunoglobulin A lambda), B lymphoblasts) and SR cells (human large cell immunoblast lymphoma) were purchased from the American Type Culture Collection (ATCC).
as §1, with “1640/IMDM/DMEM” for “1640”, “respectively. All cells were tested negative for mycoplasma with mycoplasma detection kit before the experiment.” for “respectively.”
(§3) Determination of the Half Inhibitory Concentration (IC50) of PROTAD Compounds on Tumor Cells
(§4) MV-411 cells, MM1S cells and SR cells were seeded in 100 μL IMDM/RPMI1640/DMEM complete medium at a density of 15000/10000 cells/well; MDA-MB-231 cells, MDA-MB-468 cells, and MDA-MB453 cells were seeded in 100 μL IMDM/RPMI1640/DMEM complete medium at a density of 3000/5000 cells/well, respectively. 100 μL of the inoculated cells were treated with 0.5 μL diluted PROTAD compounds of the present disclosure to be tested at 10 successively decreasing concentrations (starting at the highest concentration of 10 μM; 5-fold serial dilutions). After the cells were treated with the tested drugs 48/72 h, the cell viability was determined according to the CCK-8 reagent manual. The negative control was DMSO, and the positive control was a commercial inhibitor. After CCK-8 treatment for 2 h, the value of O.D.450 was measured using a microplate reader.

MV-4-11 cells = experiment: Half inhibitory concentration (IC50) on BET-expressing tumor cells, CCK-8, MV-4-11; conditions: Homo sapiens, MV4-11, read-out: IC50 (nM)/MV-4-11 cell line, MV-4-11 cells, 48/72 h, CCK-8
MM1S cells [2] = experiment: Half inhibitory concentration (IC50) on BET-expressing tumor cells, CCK-8, MM1S; assay type: cell-based; conditions: Homo sapiens, MM1.S, 48/72 h, read-out: IC50 (nM)/MM1S cell line
Protocol: as §2
as §1, with “1640/IMDM/DMEM” for “1640”, “respectively. All cells were tested negative for mycoplasma with mycoplasma detection kit before the experiment.” for “respectively.”
as §3, §4

MDA-MB-468 cells = experiment: Half inhibitory concentration (IC50) on BET-expressing tumor cells, CCK-8, MDA-MB-468; assay type: cell-based; conditions: Homo sapiens, 48/72 h, read-out: IC50 (nM)/MDA-MB-468 cell line
Protocol: as §2
as §1, with “1640/IMDM/DMEM” for “1640”, “respectively. All cells were tested negative for mycoplasma with mycoplasma detection kit before the experiment.” for “respectively.”
as §3, §4

MDA-MB-453 cells = experiment: Half inhibitory concentration (IC50) on BET-expressing tumor cells, CCK-8, MDA-MB-453; assay type: cell-based, human; conditions: 48/72 h, read-out: IC50 (nM)/MDA-MB-453 cell line
Protocol: as §2
as §1, with “1640/IMDM/DMEM” for “1640”, “respectively. All cells were tested negative for mycoplasma with mycoplasma detection kit before the experiment.” for “respectively.”
as §3, §4

[3] = Homo sapiens, MDA-MB-453, MDA-MB-453 cells

| IC50 (MM1S cells [1]) [nM] | IC50 (MDA-MB-231 cells) [nM] | IC50 (MV-4-11 cells) [nM] | IC50 (MM1S cells [2]) [nM] | IC50 (MDA-MB-468 cells) [nM] | IC50 (MDA-MB-453 cells; [3]) [nM] | IC50 (MDA-MB-453 cells; MDA-MB-453 cells) [nM] | SMILES |
| --- | --- | --- | --- | --- | --- | --- | --- |
| 9.38 | – | – | – | – | – | – | Nc1cccc2c1C(=O)N(C1CCC(=O)NC1=O)C2=O (stereo not drawn) [Pomalidomide, reference compound] |
| 3.45 | – | – | – | – | – | – | O=C1CCC(N2Cc3c(SCCCCCCCCCCCBr)cccc3C2=O)C(=O)N1 (stereo not drawn) [SIAIS1220015, 3-(4-((11-bromoundecyl)thio)-1-oxoisoindolin-2-yl)piperidine-2,6-dione] |
| – | 55 ± 31 | 0.9 ± 0.8 | 0.7 | 9.6 ± 2.9 | 52.3 | 63.9 | Cc1sc2c(c1C)C(c1ccc(Cl)cc1)=N[C@@H](CC(=O)NCCCCCCCSc1cccc3c1CN(C1CCC(=O)NC1=O)C3=O)c1nnc(C)n1-2 (stereo partly drawn) [SIAIS171144, 2-((S)-4-(4-chlorophenyl)-2,3,9-trimethyl-6H-thieno[3,2-f][1,2,4]triazolo[4,3-a][1,4]diazepin-6-yl)-N-(7-((2-(2,6-dioxopiperidin-3-yl)-1-oxoisoindolin-4-yl)thio)heptyl)acetamide] |
| 4.22 | – | – | – | – | – | – | NCCCCCCCCSc1cccc2c1CN(C1CCC(=O)NC1=O)C2=O (stereo not drawn) [SIAIS171136, 3-(4-((8-aminooctyl)thio)-1-oxoisoindolin-2-yl)piperidine-2,6-dione] |
| – | 69 ± 38 | 2.2 ± 2 | 2.78 | 46 ± 12 | 85 | 75.7 | Cc1sc2c(c1C)C(c1ccc(Cl)cc1)=N[C@@H](CC(=O)NCCCCCCCSc1cccc3c1C(=O)N(C1CCC(=O)NC1=O)C3=O)c1nnc(C)n1-2 (stereo partly drawn) [SIAIS171040, 2-((S)-4-(4-chlorophenyl)-2,3,9-trimethyl-6H-thieno[3,2-f][1,2,4]triazolo[4,3-a][1,4]diazepin-6-yl)-N-(7-((2-(2,6-dioxopiperidin-3-yl)-1,3-dioxoisoindolin-4-yl)thio)heptyl)acetamide] |
| 4.31 | – | – | – | – | – | – | NCCCCCCCSc1cccc2c1CN(C1CCC(=O)NC1=O)C2=O (stereo not drawn) [SIAIS171135, 3-(4-((7-aminoheptyl)thio)-1-oxoisoindolin-2-yl)piperidine-2,6-dione] |
| 1.58 ± 0.71 | – | – | – | – | – | – | O=C1CCC(N2Cc3c(SCCCCCCCCBr)cccc3C2=O)C(=O)N1 (stereo not drawn) [SIAIS1216137, 3-(4-((8-bromooctyl)thio)-1-oxoisoindolin-2-yl)piperidine-2,6-dione] |
| 1.98 | – | – | – | – | – | – | O=C1CCC(N2Cc3c(SCCCCCCCCCCBr)cccc3C2=O)C(=O)N1 (stereo not drawn) [SIAIS1220013, 3-(4-((10-bromodecyl)thio)-1-oxoisoindolin-2-yl)piperidine-2,6-dione] |
| 8.27 | – | – | – | – | – | – | NCCCCCSc1cccc2c1CN(C1CCC(=O)NC1=O)C2=O (stereo not drawn) [SIAIS171132, 3-(4-((5-aminopentyl)thio)-1-oxoisoindolin-2-yl)piperidine-2,6-dione] |
| 56.9 | – | – | – | – | – | – | NCCCSc1cccc2c1CN(C1CCC(=O)NC1=O)C2=O (stereo not drawn) [SIAIS171124, 3-(4-((3-aminopropyl)thio)-1-oxoisoindolin-2-yl)piperidine-2,6-dione] |
| – | 98 ± 82 | 2.7 ± 2.5 | 0.82 | 92 ± 43 | 167 | 162 | Cc1sc2c(c1C)C(c1ccc(Cl)cc1)=N[C@@H](CC(=O)NCCCCCCSc1cccc3c1C(=O)N(C1CCC(=O)NC1=O)C3=O)c1nnc(C)n1-2 (stereo partly drawn) [SIAIS171039, 2-((S)-4-(4-chlorophenyl)-2,3,9-trimethyl-6H-thieno[3,2-f][1,2,4]triazolo[4,3-a][1,4]diazepin-6-yl)-N-(6-((2-(2,6-dioxopiperidin-3-yl)-1,3-dioxoisoindolin-4-yl)thio)hexyl)acetamide] |
| 6.61 | – | – | – | – | – | – | NCCCCSc1cccc2c1CN(C1CCC(=O)NC1=O)C2=O (stereo not drawn) [SIAIS171131, 3-(4-((4-aminobutyl)thio)-1-oxoisoindolin-2-yl)piperidine-2,6-dione] |
| 71.4 | – | – | – | – | – | – | NCCSc1cccc2c1CN(C1CCC(=O)NC1=O)C2=O (stereo not drawn) [SIAIS171123, 3-(4-((2-aminoethyl)thio)-1-oxoisoindolin-2-yl)piperidine-2,6-dione] |
| 1.23 ± 0.42 | – | – | – | – | – | – | O=C1CCC(N2Cc3c(SCCCCCCCBr)cccc3C2=O)C(=O)N1 (stereo not drawn) [SIAIS1216135, 3-(4-(7-bromoheptylthio)-1-oxoisoindolin-2-yl)piperidine-2,6-dione] |
| – | 645 ± 249 | 7.2 ± 9.2 | 3.06 | 1730 ± 1650 | 166 | 237 | Cc1sc2c(c1C)C(c1ccc(Cl)cc1)=N[C@@H](CC(=O)NCCCCCCCCSc1cccc3c1C(=O)N(C1CCC(=O)NC1=O)C3=O)c1nnc(C)n1-2 (stereo partly drawn) [SIAIS171049, 2-((S)-4-(4-chlorophenyl)-2,3,9-trimethyl-6H-thieno[3,2-f][1,2,4]triazolo[4,3-a][1,4]diazepin-6-yl)-N-(8-((2-(2,6-dioxopiperidin-3-yl)-1,3-dioxoisoindolin-4-yl)thio)octyl)acetamide] |
| 4.77 | – | – | – | – | – | – | NCCCCCCSc1cccc2c1CN(C1CCC(=O)NC1=O)C2=O (stereo not drawn) [SIAIS171134, 3-(4-((6-aminohexyl)thio)-1-oxoisoindolin-2-yl)piperidine-2,6-dione] |
| 1.27 ± 0.13 | – | – | – | – | – | – | O=C1CCC(N2Cc3c(SCCCCCCBr)cccc3C2=O)C(=O)N1 (stereo not drawn) [SIAIS1216133, 3-(4-(6-bromohexylthio)-1-oxoisoindolin-2-yl)piperidine-2,6-dione] |

| SMILES | IC50 (MM1S cells [1]) [nM] | IC50 (MDA-MB-231 cells) [nM] | IC50 (MV-4-11 cells) [nM] | IC50 (MM1S cells [2]) [nM] | IC50 (MDA-MB-468 cells) [nM] | IC50 (MDA-MB-453 cells; [3]) [nM] | IC50 (MDA-MB-453 cells; MDA-MB-453 cells) [nM] |
| --- | --- | --- | --- | --- | --- | --- | --- |
| Cc1sc2c(c1C)C(c1ccc(Cl)cc1)=N[C@@H](CC(=O)NCCSc1cccc3c1CN(C1CCC(=O)NC1=O)C3=O)c1nnc(C)n1-2 (stereo partly drawn) [SIAIS171138, 2-((S)-4-(4-chlorophenyl)-2,3,9-trimethyl-6H-thieno[3,2-f][1,2,4]triazolo[4,3-a][1,4]diazepin-6-yl)-N-(2-((2-(2,6-dioxopiperidin-3-yl)-1-oxoisoindolin-4-yl)thio)ethyl)acetamide] | – | > 10000 | 8.6 ± 9.1 | 3.1 | > 1740 | 2630 | 2800 |
| Cc1sc2c(c1C)C(c1ccc(Cl)cc1)=N[C@@H](CC(=O)NCCSc1cccc3c1C(=O)N(C1CCC(=O)NC1=O)C3=O)c1nnc(C)n1-2 (stereo partly drawn) [SIAIS171036, 2-((S)-4-(4-chlorophenyl)-2,3,9-trimethyl-6H-thieno[3,2-f][1,2,4]triazolo[4,3-a][1,4]diazepin-6-yl)-N-(2-((2-(2,6-dioxopiperidin-3-yl)-1,3-dioxoisoindolin-4-yl)thio)ethyl)acetamide] | – | 242 ± 65 | 4.5 ± 3.2 | 8.6 | 100 ± 21 | 163 | 214 |
| Cc1sc2c(c1C)C(c1ccc(Cl)cc1)=N[C@@H](CC(=O)NCCCSc1cccc3c1CN(C1CCC(=O)NC1=O)C3=O)c1nnc(C)n1-2 (stereo partly drawn) [SIAIS171139, 2-((S)-4-(4-chlorophenyl)-2,3,9-trimethyl-6H-thieno[3,2-f][1,2,4]triazolo[4,3-a][1,4]diazepin-6-yl)-N-(3-((2-(2,6-dioxopiperidin-3-yl)-1-oxoisoindolin-4-yl)thio)propyl)acetamide] | – | > 10000 | 1.1 ± 0.6 | 2.03 | > 10000 | 452 | – |
